# Source: patent US20110071150A1 (priority 2009, published 2011)
# Test system: Jurkat IL-2 Production
# Test: Jurkat IL-2 Production Assay
# Type: cell-based
# Details: Homo sapiens, Jurkat cell (ATCC), 18-20 h incubation, PHA 5 μg/mL with 1% FBS, or PMA/Ionomycin with 30% FBS (table does not say which)
# Outline: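 Jurkat cells were exposed to compound (0.25% DMSO final) for 10 min, then stimulated for 18–20 h at 37 °C. The 1% FBS condition used 5 μg/mL PHA; the high-serum condition (30% FBS) used 50 ng/mL PMA plus 500 ng/mL ionomycin. IC50 was derived from IL-2 production.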
row,Structure (SMILES),IC50 [nM]
1,"Cc1cc(S(=O)(=O)N(C)C)cnc1-c1ccc2[nH]c(-c3c(F)cccc3Cl)cc2c1 [Example 167, 6-(2-(2-chloro-6-fluorophenyl)-1H-indol-5-yl)-N,N,5-trimethylpyridine-3-sulfonamide]",34
2,"Cc1cc(C#N)ccc1-c1ccc2[nH]c(-c3c(F)cc(OCCO)cc3F)cc2c1 [Example 154, 4-(2-(2,6-difluoro-4-(2-hydroxyethoxy)phenyl)-1H-indol-5-yl)-3-methylbenzonitrile]",586
3,"Cc1cc(C#N)ncc1-c1ccc2[nH]c(-c3cnccc3C)cc2c1 [Example 212, 4-Methyl-5-[2-(4-methyl-pyridin-3-yl)-1H-indol-5-yl]-pyridine-2-carbonitrile]",447
4,"Cn1nc(C(F)(F)F)cc1-c1ccc2[nH]c(-c3c(F)cccc3Cl)cc2c1 [Example 48, 2-(2-Chloro-6-fluoro-phenyl)-5-(2-methyl-5-trifluoromethyl-2H-pyrazol-3-yl)-1H-indole]",12
5,"Cn1nc(C(F)(F)F)cc1-c1ccc2[nH]c(-c3ccccc3F)cc2c1 [Example 14, 2-(2-Fluoro-phenyl)-5-(2-methyl-5-trifluoromethyl-2H-pyrazol-3-yl)-1H-indole]",337
6,"Cn1nc(-c2cccnc2)cc1-c1ccc2[nH]c(-c3ccc(F)cc3Cl)cc2c1 [Example 86, 2-(2-Chloro-4-fluoro-phenyl)-5-(2-methyl-5-pyridin-3-yl-2H-pyrazol-3-yl)-1H-indole]",118
7,"COCCOc1cc(F)c(-c2cc3cc(-c4ccc(C#N)cc4C)ccc3[nH]2)c(F)c1 [Example 153, 4-(2-(2,6-difluoro-4-(2-methoxyethoxy)phenyl)-1H-indol-5-yl)-3-methylbenzonitrile]",331
8,"COc1cc(C)c(-c2ccc3[nH]c(-c4ccccc4F)cc3c2)cn1 [Example 112, 2-(2-Fluoro-phenyl)-5-(6-methoxy-4-methyl-pyridin-3-yl)-1H-indole]",843
9,"Cc1cc(Cl)ncc1-c1ccc2[nH]c(-c3c(F)cccc3Cl)cc2c1 [Example 160, 2-(2-Chloro-6-fluoro-phenyl)-5-(6-chloro-4-methyl-pyridin-3-yl)-1H-indole]",18
10,COC(=O)c1ccc(-c2ccc3[nH]c(-c4ccccc4Cl)cc3c2)c(C)c1 [Example 126],106
11,"CCn1nc(-c2cccnc2)cc1-c1ccc2[nH]c(-c3ccccc3Cl)cc2c1 [Example 78, 2-(2-Chloro-phenyl)-5-(2-ethyl-5-pyridin-3-yl-2H-pyrazol-3-yl)-1H-indole]",95
12,Cn1nc(C(F)(F)F)cc1-c1ccc2[nH]c(C3CCCCC3)cc2c1 [Example 222],40
13,"Cn1nc(C(F)(F)F)cc1-c1ccc2[nH]c(-c3ccccc3Cl)cc2c1 [Example 59, 2-(2-Chloro-phenyl)-5-(2-methyl-5-trifluoromethyl-2H-pyrazol-3-yl)-1H-indole]",105
14,"CCn1nc(C(F)(F)F)cc1-c1ccc2[nH]c(C3CCCCC3)cc2c1 [Example 196, 2-cyclohexyl-5-(1-ethyl-3-(trifluoromethyl)-1H-pyrazol-5-yl)-1H-indole]",24
15,"Cc1cc(S(=O)(=O)N(C)C)ccc1-c1ccc2[nH]c(-c3ccccc3Cl)cc2c1 [Example 130, 4-[2-(2-Chloro-phenyl)-1H-indol-5-yl]-3,N,N-trimethyl-benzenesulfonamide]",16
16,"COc1ccc(-c2ccc3[nH]c(-c4c(F)cccc4Cl)cc3c2)c(OC)c1 [Example 54, 2-(2-chloro-6-fluoro-phenyl)-5-(2,4-dimethoxy-phenyl)-1H-indole]",33
17,"Cc1ccc(-c2ccc3[nH]c(-c4c(F)cccc4F)cc3c2)c(C)c1 [Example 29, 2-(2,6-Difluoro-phenyl)-5-(2,4-dimethyl-phenyl)-1H-indole]",168
18,"COc1cc(C)c(-c2ccc3[nH]c(-c4cnccc4C)cc3c2)cn1 [Example 216, 5-(6-Methoxy-4-methyl-pyridin-3-yl)-2-(4-methyl-pyridin-3-yl)-1H-indole]",110
19,"CCn1nc(-c2cccnc2)cc1-c1ccc2[nH]c(-c3c(F)cccc3Cl)cc2c1 [Example 49, 2-(2-Chloro-6-fluoro-phenyl)-5-(2-ethyl-5-pyridin-3-yl-2H-pyrazol-3-yl)-1H-indole]",13
20,"CC(C)c1sc(-c2cnccn2)nc1-c1ccc2[nH]c(-c3c(F)cccc3Cl)cc2c1 [Example 181, 2-(2-Chloro-6-fluoro-phenyl)-5-(5-isopropyl-2-pyrazin-2-yl-thiazol-4-yl)-1H-indole]",56
21,"Cc1cc(Cl)ncc1-c1ccc2[nH]c(-c3cnccc3C)cc2c1 [Example 215, 5-(6-Chloro-4-methyl-pyridin-3-yl)-2-(4-methyl-pyridin-3-yl)-1H-indole]",235
22,"CCn1nc(-c2cnccn2)cc1-c1ccc2[nH]c(-c3cnccc3C)cc2c1 [Example 211, 5-(2-Ethyl-5-pyrazin-2-yl-2H-pyrazo-1-3-yl)-2-(4-methyl-pyridin-3-yl)-1H-indole]",124
23,"COc1nccc(-c2cc3cc(-c4cc(C(F)(F)F)nn4C)ccc3[nH]2)c1Cl [Example 43, 2-(3-Chloro-2-methoxy-pyridin-4-yl)-5-(2-methyl-5-trifluoromethyl-2H-pyrazol-3-yl)-1H-indole]",87
24,"Cn1nc(C(F)(F)F)cc1-c1ccc2[nH]c(-c3cc(Cl)ccc3F)cc2c1 [Example 33, 2-(5-Chloro-2-fluoro-phenyl)-5-(2-methyl-5-trifluoromethyl-2H-pyrazol-3-yl)-1H-indole]",741
25,"Cc1sc(I)nc1-c1ccc2[nH]c(-c3c(F)cccc3F)cc2c1 [Example 106, 2-(2,6-Difluoro-phenyl)-5-(2-iodo-5-methyl-thiazol-4-yl)-1H-indole]",488
26,"COc1cc(F)c(-c2cc3cc(-c4cc(C(F)(F)F)nn4C)ccc3[nH]2)c(Cl)c1 [Example 201, 2-(2-chloro-6-fluoro-4-methoxyphenyl)-5-(1-methyl-3-(trifluoromethyl)-1H-pyrazol-5-yl)-1H-indole]",35

# More lines, now with the values ahead:
row,IC50 [nM],Structure (SMILES)
1,63,"Cc1sc(-c2cccnc2)nc1-c1ccc2[nH]c(-c3ccc(F)cc3Cl)cc2c1 [Example 67, 2-(2-Chloro-4-fluoro-phenyl)-5-(5-methyl-2-pyridin-3-yl-thiazol-4-yl)-1H-indole]"
2,220,"CCn1nc(C(F)(F)F)cc1-c1ccc2[nH]c(C3CCN(C(C)=O)CC3)cc2c1 [Example 200, 1-(4-(5-(1-ethyl-3-(trifluoromethyl)-1H-pyrazol-5-yl)-1H-indol-2-yl)piperidin-1-yl)ethanone]"
3,101,"CCn1nc(-c2cccnc2)cc1-c1ccc2[nH]c(-c3c(F)cccc3F)cc2c1 [Example 20, 2-(2,6-Difluoro-phenyl)-5-(2-ethyl-5-pyridin-3-yl-2H-pyrazol-3-yl)-1H-indole]"
4,102,"CCn1nc(-c2ccncc2)cc1-c1ccc2[nH]c(-c3c(F)cccc3F)cc2c1 [Example 18, 2-(2,6-Difluoro-phenyl)-5-(2-ethyl-5-pyridin-4-yl-2H-pyrazol-3-yl)-1H-indole]"
5,222,"Cc1cc(C#N)ccc1-c1ccc2[nH]c(-c3c(F)cc(O)cc3F)cc2c1 [Example 157, 4-(2-(2,6-difluoro-4-hydroxyphenyl)-1H-indol-5-yl)-3-methylbenzonitrile]"
6,51,"Cc1sc(-c2cnccn2)nc1-c1ccc2[nH]c(-c3c(F)cccc3F)cc2c1 [Example 206, 2-(2,6-Difluoro-phenyl)-5-(5-methyl-2-pyrazin-2-yl-thiazol-4-yl)-1H-indole]"
7,23,"CCc1sc(-c2cnccn2)nc1-c1ccc2[nH]c(-c3c(F)cccc3Cl)cc2c1 [Example 179, 2-(2-Chloro-6-fluoro-phenyl)-5-(5-ethyl-2-pyrazin-2-yl-thiazol-4-yl)-1H-indole]"
8,34,"Cc1cc(C#N)ncc1-c1ccc2[nH]c(-c3c(F)cccc3Cl)cc2c1 [Example 162, 5-(2-(2-chloro-6-fluorophenyl)-1H-indol-5-yl)-4-methylpicolinonitrile]"
9,162,"COc1ccc(-c2cc3cc(-c4ccc(C#N)cc4C)ccc3[nH]2)c(C)n1 [Example 139, 4-(2-(6-methoxy-2-methylpyridin-3-yl)-1H-indol-5-yl)-3-methylbenzonitrile]"
10,71,"Cc1cc(C(F)(F)F)ccc1-c1ccc2[nH]c(-c3c(F)cccc3F)cc2c1 [Example 32, 2-(2,6-Difluoro-phenyl)-5-(2-methyl-4-trifluoromethyl-phenyl)-1H-indole]"
11,14,"COC(=O)c1ccc(-c2ccc3[nH]c(-c4c(F)cccc4Cl)cc3c2)c(C)c1 [Example 53, 4-[2-(2-Chloro-6-fluoro-phenyl)-1H-indol-5-yl]-3-methyl-benzoic acid methyl ester]"
12,12,"Cn1nc(-c2cccnc2)nc1-c1ccc2[nH]c(-c3c(F)cccc3Cl)cc2c1 [Example 116, 2-(2-Chloro-6-fluoro-phenyl)-5-(2-methyl-5-pyridin-3-yl-2H-[1,2,4]-triazol-3-yl)-1H-indole]"
13,16,"Cc1cc(C#N)ccc1-c1ccc2[nH]c(-c3c(F)cccc3Cl)cc2c1 [Example 158, 4-[2-(2-chloro-6-fluorophenyl)-1H-indol-5-yl]-3-methylbenzonitrile]"
14,468,"CCn1nc(-c2ccccc2)cc1-c1ccc2[nH]c(-c3c(F)cccc3F)cc2c1 [Example 15, 2-(2,6-difluoro-phenyl)-5-(2-ethyl-5-phenyl-2H-pyrazol-3-yl)-1H-indole]"
15,83,"COc1ccc(-c2cc3cc(-c4cc(C(F)(F)F)nn4C)ccc3[nH]2)c(C)n1 [Example 38, 2-(6-Methoxy-2-methyl-pyridin-3-yl)-5-(2-methyl-5-trifluoromethyl-2H-pyrazol-3-yl)-1H-indole]"
16,44,"CNS(=O)(=O)c1ccc(-c2ccc3[nH]c(-c4c(F)cccc4Cl)cc3c2)c(C)c1 [Example 168, 4-(2-(2-chloro-6-fluorophenyl)-1H-indol-5-yl)-N,3-dimethylbenzenesulfonamide]"
